Measured values from ChEMBL document CHEMBL4325863, “Investigating alkyl nitrates as nitric oxide releasing precursors of multitarget acetylcholinesterase-monoamine oxidase B inhibitors” (Eur J Med Chem, 2019).
Activity calls are given as the source filed them. The calls are words filed in the database; no cut-off is given here.

Assays:
SH-SY5Y = assay: Neuroprotection against rotenone/H2O2-induced cell death in human SH-SY5Y cells assessed as increase in cell viability at 0.1 to […] preincubated for 24 hrs followed by rotenone/H2O2 addition measured after 24 hrs by MTT assay; format: functional, cell-based
[1] = biological target: T1, Amine oxidase [flavin-containing] B (Homo sapiens, UniProt P27338); assay: Inhibition of recombinant human MAO-B expressed in baculovirus infected insect cell microsomes at 10 uM using kynuramine as substrate measured after 30 mins by spectrophotometric assay relative to control; settings: 0.5 h
T1 sequence (P27338 whole entry): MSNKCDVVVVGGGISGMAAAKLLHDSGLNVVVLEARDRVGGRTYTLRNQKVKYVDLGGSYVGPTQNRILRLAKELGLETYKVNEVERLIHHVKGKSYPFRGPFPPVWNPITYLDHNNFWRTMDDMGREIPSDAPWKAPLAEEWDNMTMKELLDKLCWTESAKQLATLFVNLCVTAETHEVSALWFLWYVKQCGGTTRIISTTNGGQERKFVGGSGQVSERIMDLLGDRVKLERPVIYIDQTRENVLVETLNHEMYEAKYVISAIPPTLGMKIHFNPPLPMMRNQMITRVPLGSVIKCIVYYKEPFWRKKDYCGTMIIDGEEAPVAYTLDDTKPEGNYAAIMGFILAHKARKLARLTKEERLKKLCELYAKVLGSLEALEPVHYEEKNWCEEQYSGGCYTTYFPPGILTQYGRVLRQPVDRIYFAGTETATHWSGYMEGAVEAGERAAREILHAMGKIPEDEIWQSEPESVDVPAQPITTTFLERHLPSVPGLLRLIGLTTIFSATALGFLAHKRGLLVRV

[2] = biological target: Cholinesterase (Equus caballus) (UniProt P81908); assay: Inhibition of equine serum BuChE at 10 uM using butyrylthiocholine iodide as substrate by Ellman's method relative to control
Sequence of Cholinesterase (Equus caballus) (P81908 whole entry): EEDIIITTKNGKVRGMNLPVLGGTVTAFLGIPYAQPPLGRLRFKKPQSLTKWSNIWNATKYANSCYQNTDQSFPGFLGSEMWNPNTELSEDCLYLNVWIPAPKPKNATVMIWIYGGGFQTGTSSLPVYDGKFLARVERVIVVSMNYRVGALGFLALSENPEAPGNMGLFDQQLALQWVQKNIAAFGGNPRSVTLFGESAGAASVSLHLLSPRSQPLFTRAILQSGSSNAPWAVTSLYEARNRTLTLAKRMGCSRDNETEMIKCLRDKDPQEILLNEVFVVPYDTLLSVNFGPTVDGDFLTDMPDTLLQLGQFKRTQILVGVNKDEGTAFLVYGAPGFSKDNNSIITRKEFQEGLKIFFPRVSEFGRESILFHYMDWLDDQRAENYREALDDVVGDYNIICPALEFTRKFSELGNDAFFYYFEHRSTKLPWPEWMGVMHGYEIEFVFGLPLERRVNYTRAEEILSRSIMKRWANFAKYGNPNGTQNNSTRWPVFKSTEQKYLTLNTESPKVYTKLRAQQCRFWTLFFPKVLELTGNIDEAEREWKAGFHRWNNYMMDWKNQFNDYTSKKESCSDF

[3] = biological target: T1, Amine oxidase [flavin-containing] B; assay: Inhibition of recombinant human MAO-B expressed in baculovirus infected insect cell microsomes at 10 uM using kynuramine as substrate measured after 30 mins by fluorescence based assay relative to control; settings: 0.5 h
[4] = biological target: Acetylcholinesterase (Electrophorus electricus) (UniProt O42275); assay: Inhibition of electric eel AChE at 10 uM using acetylthiocholine iodide as substrate by Ellman's method relative to control
Sequence of Acetylcholinesterase (Electrophorus electricus) (O42275 24-633 limits assumed): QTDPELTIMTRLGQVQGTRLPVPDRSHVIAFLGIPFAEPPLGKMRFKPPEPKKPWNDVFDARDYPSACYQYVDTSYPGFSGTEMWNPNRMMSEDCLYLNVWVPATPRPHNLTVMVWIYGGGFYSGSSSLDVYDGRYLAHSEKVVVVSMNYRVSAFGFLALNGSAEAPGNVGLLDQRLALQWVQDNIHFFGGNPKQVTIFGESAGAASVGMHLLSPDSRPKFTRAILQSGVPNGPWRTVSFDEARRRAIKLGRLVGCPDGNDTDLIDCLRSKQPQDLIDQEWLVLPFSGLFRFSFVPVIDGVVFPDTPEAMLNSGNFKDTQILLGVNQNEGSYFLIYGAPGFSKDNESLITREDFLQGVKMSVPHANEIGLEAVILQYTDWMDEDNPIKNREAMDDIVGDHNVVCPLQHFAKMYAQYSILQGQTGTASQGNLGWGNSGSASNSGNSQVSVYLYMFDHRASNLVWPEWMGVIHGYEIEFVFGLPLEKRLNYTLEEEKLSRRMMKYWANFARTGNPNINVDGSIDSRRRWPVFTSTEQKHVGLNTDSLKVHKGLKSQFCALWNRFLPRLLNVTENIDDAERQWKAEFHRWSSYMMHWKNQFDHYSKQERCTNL

[5] = biological target: T2, Amine oxidase [flavin-containing] A (Homo sapiens, UniProt P21397); assay: Inhibition of recombinant human MAO-A expressed in baculovirus infected insect cell microsomes at 10 uM using kynuramine as substrate measured after 30 mins by fluorescence based assay relative to control; settings: 0.5 h
T2 sequence (P21397 whole entry): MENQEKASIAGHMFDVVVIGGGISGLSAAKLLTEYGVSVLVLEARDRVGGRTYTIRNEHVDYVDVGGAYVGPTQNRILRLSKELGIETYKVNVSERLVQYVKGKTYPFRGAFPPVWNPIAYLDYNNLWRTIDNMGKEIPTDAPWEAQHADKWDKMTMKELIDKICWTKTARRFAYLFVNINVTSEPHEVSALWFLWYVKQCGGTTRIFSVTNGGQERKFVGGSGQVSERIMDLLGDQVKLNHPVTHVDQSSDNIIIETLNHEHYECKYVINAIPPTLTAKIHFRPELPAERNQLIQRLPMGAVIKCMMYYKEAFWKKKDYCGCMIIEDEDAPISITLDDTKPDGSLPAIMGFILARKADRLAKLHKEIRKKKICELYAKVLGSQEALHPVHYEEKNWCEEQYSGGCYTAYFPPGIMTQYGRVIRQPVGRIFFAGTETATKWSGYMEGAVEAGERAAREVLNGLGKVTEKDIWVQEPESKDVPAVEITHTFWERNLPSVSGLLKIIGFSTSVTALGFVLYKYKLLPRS

Acetylcholinesterase = Acetylcholinesterase (Homo sapiens, UniProt P22303); assay: Inhibition of human recombinant AChE using acetylthiocholine iodide as substrate by Ellman's method
Sequence of Acetylcholinesterase (P22303 whole entry): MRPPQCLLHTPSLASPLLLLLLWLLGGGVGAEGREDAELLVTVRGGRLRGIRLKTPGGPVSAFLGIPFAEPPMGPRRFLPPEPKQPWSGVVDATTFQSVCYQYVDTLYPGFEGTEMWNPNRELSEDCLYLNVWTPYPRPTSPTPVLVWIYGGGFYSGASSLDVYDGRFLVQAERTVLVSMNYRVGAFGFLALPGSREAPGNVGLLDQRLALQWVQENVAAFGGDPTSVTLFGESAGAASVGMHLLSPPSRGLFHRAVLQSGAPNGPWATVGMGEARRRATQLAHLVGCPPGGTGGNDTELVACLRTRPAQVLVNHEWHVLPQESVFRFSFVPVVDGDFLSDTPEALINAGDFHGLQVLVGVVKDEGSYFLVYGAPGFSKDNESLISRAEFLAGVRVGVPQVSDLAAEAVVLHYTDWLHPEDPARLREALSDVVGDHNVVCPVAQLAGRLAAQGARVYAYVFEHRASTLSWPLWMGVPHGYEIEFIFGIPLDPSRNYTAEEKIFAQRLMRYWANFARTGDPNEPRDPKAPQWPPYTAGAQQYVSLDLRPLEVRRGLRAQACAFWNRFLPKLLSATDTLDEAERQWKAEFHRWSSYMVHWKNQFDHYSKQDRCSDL

[6] = Drug metabolism in pH 7.4 PBS buffer assessed as 7-({1-[3-(3-Hydroxypropoxy)benzyl]piperidin-4-yl}methoxy)-3,4-dimethyl-2H-chromen-2-one formation at 100 uM up to 30 hrs in presence of glutathione by RP-HPLC method
[7] = Drug metabolism in pH 7.4 PBS buffer assessed as 7-({1-[3-(3-Hydroxypropoxy)benzyl]piperidin-4-yl}methoxy)-3,4-dimethyl-2H-chromen-2-one formation at 100 uM up to 30 hrs in presence of cysteine by RP-HPLC method
[8] = Drug metabolism in pH 7.4 PBS buffer at 100 uM after 24 hrs in presence of glutathione by RP-HPLC method
Cholinesterase = Cholinesterase (Homo sapiens, UniProt P06276); assay: Inhibition of human serum BuChE using butyrylthiocholine iodide as substrate by Ellman's method
Sequence of Cholinesterase (P06276 whole entry): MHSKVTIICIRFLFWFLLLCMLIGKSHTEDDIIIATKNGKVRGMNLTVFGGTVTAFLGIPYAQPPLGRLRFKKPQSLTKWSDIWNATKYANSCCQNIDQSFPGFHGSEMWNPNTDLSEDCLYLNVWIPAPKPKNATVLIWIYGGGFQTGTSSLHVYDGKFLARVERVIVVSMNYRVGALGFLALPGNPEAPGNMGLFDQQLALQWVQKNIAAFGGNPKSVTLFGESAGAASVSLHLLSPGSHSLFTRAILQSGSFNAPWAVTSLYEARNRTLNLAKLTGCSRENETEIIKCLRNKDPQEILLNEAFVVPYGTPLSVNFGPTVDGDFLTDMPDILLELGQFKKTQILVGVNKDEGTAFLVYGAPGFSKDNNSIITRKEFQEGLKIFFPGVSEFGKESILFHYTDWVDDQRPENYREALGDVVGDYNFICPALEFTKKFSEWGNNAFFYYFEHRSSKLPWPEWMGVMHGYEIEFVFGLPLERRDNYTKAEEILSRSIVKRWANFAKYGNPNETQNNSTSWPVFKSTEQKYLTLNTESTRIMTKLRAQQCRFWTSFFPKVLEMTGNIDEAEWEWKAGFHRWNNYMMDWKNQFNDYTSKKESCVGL

[9] = Half life in human serum at 100 uM by RP-HPLC method; format: ADME, cell-free
[10] = Drug metabolism in pH 7.4 PBS buffer at 100 uM after 24 hrs by RP-HPLC method
[11] = Drug metabolism in PBS buffer assessed as nitric oxide release at 150 uM in presence of cysteine by Griess reagent based UV-Visible spectrophotometric method; settings: TDE = time-dependent effect
[12] = biological target: T1, Amine oxidase [flavin-containing] B; assay: Inhibition of recombinant human MAO-B expressed in baculovirus infected insect cell microsomes using kynuramine as substrate measured after 30 mins by fluorescence based assay
[13] = Drug metabolism in pH 7.4 PBS buffer assessed as 7-({1-[3-(3-Hydroxypropoxy)benzyl]piperidin-4-yl}methoxy)-3,4-dimethyl-2H-chromen-2-one formation at 100 uM up to 30 hrs by RP-HPLC method
[14] = Drug metabolism in pH 7.4 PBS buffer at 100 uM after 24 hrs in presence of cysteine by RP-HPLC method
[15] = biological target: T2, Amine oxidase [flavin-containing] A; assay: Inhibition of recombinant human MAO-A expressed in baculovirus infected insect cell microsomes using kynuramine as substrate measured after 30 mins by fluorescence based assay

COc1cc2c(cc1OC)C(=O)C(CC1CCN(Cc3ccccc3)CC1)C2 (stereo not drawn)
Activity (SH-SY5Y): Active

O=c1ccc2ccc(OCC3CCN(CCCO)CC3)cc2o1
inhibition at 10 µM [1]: 39%
inhibition [2]: 26%
inhibition at 10 µM [3]: 48%
inhibition [4]: 38%
inhibition at 10 µM [5]: 26%

Cc1c(C)c2ccc(OCC3CCN(Cc4cccc(OCCCO[N+](=O)[O-])c4)CC3)cc2oc1=O
IC50 (Acetylcholinesterase): 480 nM
Drug metabolism [6]: Metabolite not detected
Drug metabolism [7]: Metabolite not detected
Drug metabolism [8]: > 50%
IC50 (Cholinesterase): 800 nM
half-life at 100 µM [9]: 19.1 days
Drug metabolism [10]: > 50%
Drug metabolism [11]: Tde
IC50 [12]: 550 nM
Drug metabolism [13]: Metabolite detected
Drug metabolism [14]: > 50%
IC50 [15]: 1200 nM
